Experimental data reported in patent US6737383B1, “Herbicidal oxadiazolidines” (priority 1999, dated 2004).

How the values were obtained:
smallflower flatsedge = assay: Test B flood test smallflower flatsedge; format: in vivo, Cyperus difformis
Summary of the method: (§1)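 Plants were grown to the 2-leaf stage before treatment with test chemical, then held in a greenhouse for twelve to sixteen days. Injury was visually rated against untreated controls on a 0–10 scale, where 0 is no effect and 10 is complete control.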

cocklebur = assay: Test B pre/postemergence cocklebur; format: in vivo, Xanthium strumarium
Summary of the method: (§2)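 Response is a visual 0-to-10 score relative to untreated plants, where 0 means no effect and 10 means complete control, taken twelve to sixteen days after application. Treatments went onto soil at planting and onto foliage of 1- to 4-leaf plants, using a surfactant-containing non-phytotoxic solvent.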

rice = assay: Test B flood test rice; format: in vivo, Oryza sativa
Summary of the method: as §1

velvetleaf = assay: Test B pre/postemergence velvetleaf; format: in vivo, Abutilon theophrasti
Summary of the method: as §2

rape = assay: Test B pre/postemergence rape; format: in vivo, Brassica napus
Summary of the method: as §2

surinam grass = assay: Test B pre/postemergence surinam grass; format: in vivo, Brachiaria decumbens
Summary of the method: as §2

wheat = assay: Test B pre/postemergence wheat; format: in vivo, Triticum aestivum
Summary of the method: as §2

purple nutsedge = assay: Test B pre/postemergence purple nutsedge; format: in vivo, Cyperus rotundus
Summary of the method: as §2

crabgrass = assay: Test B pre/postemergence crabgrass; format: in vivo, Digitaria sanguinalis
Summary of the method: as §2

duck salad = assay: Test B flood test duck salad; format: in vivo, Heteranthera limosa
Summary of the method: as §1

bedstraw = assay: Test B pre/postemergence bedstraw; format: in vivo, Galium aparine; details: Postemergence
Summary of the method: as §2

corn = assay: Test B pre/postemergence corn; format: in vivo, Zea mays
Summary of the method: as §2

bamyardgrass = assay: Test B flood test barnyardgrass; format: in vivo, Echinochloa crus-galli
Summary of the method: as §1

wild oat = assay: Test B pre/postemergence wild oat; format: in vivo, Avena fatua
Summary of the method: as §2

blackgrass = assay: Test B pre/postemergence blackgrass; format: in vivo, Alopecurus myosuroides
Summary of the method: as §2

sugar beet = assay: Test B pre/postemergence sugar beet; format: in vivo, Beta vulgaris
Summary of the method: as §2

soybean = assay: Test B pre/postemergence soybean; format: in vivo, Glycine max
Summary of the method: as §2

[1] = Postemergence block (flood test species), Rate 250 g/ha, scale 0 to 10
[2] = Postemergence section (flood test species), Rate 500 g/ha, scale of 0 to 10 where 0 is no effect and 10 is complete control
[3] = Rate 125 g/ha, Postemergence section (flood test species), scale 0 to 10, 0 is no effect, 10 is complete control
[4] = Postemergence, Rate 250 g/ha, scale 0 to 10
[5] = Postemergence, Rate 500 g/ha, scale of 0 to 10 where 0 is no effect and 10 is complete control
[6] = Preemergence, Rate 62 g/ha, scale 0 to 10 (0 no effect, 10 complete control)
[7] = Preemergence, Rate 125 g/ha, scale of 0 to 10 where 0 is no effect and 10 is complete control
[8] = Preemergence, Rate 250 g/ha, scale 0 to 10, 0 is no effect, 10 is complete control
[9] = Preemergence, Rate 500 g/ha, scale 0 to 10, 0 is no effect, 10 is complete control
[10] = Rate 62 g/ha, Postemergence, scale of 0 to 10 where 0 is no effect and 10 is complete control
[11] = Rate 125 g/ha, Postemergence, scale 0 to 10, 0 is no effect, 10 is complete control
[12] = Rate 62 g/ha, Postemergence (flood test species), scale of 0 to 10 where 0 is no effect and 10 is complete control

CC(C)N(C(=O)n1oc(=O)n(CCC#N)c1=O)c1ccc(F)cc1F [Compound 433]
S. Flatsedge plant response rating (smallflower flatsedge; [1]): 0
S. Flatsedge plant response rating (smallflower flatsedge; [2]): 0
S. Flatsedge plant response rating (smallflower flatsedge; [3]): 0
Cocklebur plant response rating (cocklebur; [4]): 0
Cocklebur plant response rating (cocklebur; [5]): 0
Plant response rating, Cocklebur (cocklebur; [6]): 0
Plant response rating, Cocklebur (cocklebur; [7]): 0
Cocklebur plant response rating (cocklebur; [8]): 2
Cocklebur plant response rating (cocklebur; [9]): 3
Cocklebur plant response rating (cocklebur; [10]): 0
Cocklebur plant response rating (cocklebur; [11]): 0
Rice plant response rating (rice; [1]): 0
Rice plant response rating (rice; [2]): 0
Rice plant response rating (rice; [3]): 0
Velvetleaf plant response rating (velvetleaf; [4]): 2
Velvetleaf plant response rating (velvetleaf; [5]): 4
Plant response rating, Velvetleaf (velvetleaf; [6]): 2
Plant response rating, Velvetleaf (velvetleaf; [7]): 2
Velvetleaf plant response rating (velvetleaf; [8]): 4
Velvetleaf plant response rating (velvetleaf; [9]): 6
Velvetleaf plant response rating (velvetleaf; [11]): 0
Rape plant response rating (rape; [4]): 0
Rape plant response rating (rape; [5]): 0
Plant response rating, Rape (rape; [6]): 0
Plant response rating, Rape (rape; [7]): 0
Rape plant response rating (rape; [8]): 3
Rape plant response rating (rape; [9]): 7
Rape plant response rating (rape; [11]): 0
B. signalgrass plant response rating (surinam grass; Postemergence, Rate 250 g/ha, scale 0 to 10, 0 no effect, 10 complete control): 3
B. signalgrass plant response rating (surinam grass; [5]): 6
Plant response rating, B. signalgrass (surinam grass; [6]): 2
Plant response rating, B. signalgrass (surinam grass; [7]): 2
B. signalgrass plant response rating (surinam grass; [8]): 2
B. signalgrass plant response rating (surinam grass; [9]): 6
B. signalgrass plant response rating (surinam grass; [10]): 0
B. signalgrass plant response rating (surinam grass; [11]): 1
Wheat plant response rating (wheat; [4]): 0
Wheat plant response rating (wheat; [5]): 3
Plant response rating, Wheat (wheat; [6]): 0
Plant response rating, Wheat (wheat; [7]): 0
Wheat plant response rating (wheat; [8]): 0
Wheat plant response rating (wheat; [9]): 2
Wheat plant response rating (wheat; [11]): 0
Nutsedge plant response rating (purple nutsedge; [4]): 0
Nutsedge plant response rating (purple nutsedge; [5]): 0
Plant response rating, Nutsedge (purple nutsedge; [6]): 0
Plant response rating, Nutsedge (purple nutsedge; [7]): 0
Nutsedge plant response rating (purple nutsedge; [8]): 0
Nutsedge plant response rating (purple nutsedge; [9]): 0
Nutsedge plant response rating (purple nutsedge; [11]): 0
Crabgrass plant response rating (crabgrass; [4]): 4
Crabgrass plant response rating (crabgrass; [5]): 9
Plant response rating, Crabgrass (crabgrass; [6]): 9
Plant response rating, Crabgrass (crabgrass; [7]): 10
Crabgrass plant response rating (crabgrass; [8]): 10
Crabgrass plant response rating (crabgrass; [9]): 10
Crabgrass plant response rating (crabgrass; [10]): 2
Crabgrass plant response rating (crabgrass; [11]): 2
Ducksalad plant response rating (duck salad; [1]): 0
Ducksalad plant response rating (duck salad; [2]): 0
Ducksalad plant response rating (duck salad; [12]): 0
Ducksalad plant response rating (duck salad; [3]): 0
Bedstraw plant response rating (bedstraw; Rate 250 g/ha, scale 0 to 10): 5
Bedstraw plant response rating (bedstraw; Rate 500 g/ha, scale of 0 to 10 where 0 is no effect and 10 is complete control): 7
Bedstraw plant response rating (bedstraw; Rate 125 g/ha, scale 0 to 10, 0 is no effect, 10 is complete control): 2
Corn plant response rating (corn; [4]): 0
Corn plant response rating (corn; [5]): 3
Plant response rating, Corn (corn; [6]): 0
Plant response rating, Corn (corn; [7]): 0
Corn plant response rating (corn; [8]): 0
Corn plant response rating (corn; [9]): 0
Corn plant response rating (corn; [10]): 0
Corn plant response rating (corn; [11]): 0
Barnyardgrass plant response rating (bamyardgrass; [1]): 0
Barnyardgrass plant response rating (bamyardgrass; [2]): 0
Barnyardgrass plant response rating (bamyardgrass; [12]): 0
Barnyardgrass plant response rating (bamyardgrass; [3]): 0
Wild oats plant response rating (wild oat; [4]): 0
Wild oats plant response rating (wild oat; [5]): 2
Plant response rating, Wild oats (wild oat; [6]): 2
Plant response rating, Wild oats (wild oat; [7]): 6
Wild oats plant response rating (wild oat; [8]): 6
Wild oats plant response rating (wild oat; [9]): 8
Wild oats plant response rating (wild oat; [11]): 0
Blackgrass plant response rating (blackgrass; [4]): 7
Blackgrass plant response rating (blackgrass; [5]): 10
Plant response rating, Blackgrass (blackgrass; [6]): 2
Plant response rating, Blackgrass (blackgrass; [7]): 2
Blackgrass plant response rating (blackgrass; [8]): 3
Blackgrass plant response rating (blackgrass; [9]): 9
Blackgrass plant response rating (blackgrass; [10]): 2
Blackgrass plant response rating (blackgrass; [11]): 5
Sugarbeets plant response rating (sugar beet; [4]): 0
Sugarbeets plant response rating (sugar beet; [5]): 0
Plant response rating, Sugarbeets (sugar beet; [6]): 0
Plant response rating, Sugarbeets (sugar beet; [7]): 2
Sugarbeets plant response rating (sugar beet; [8]): 4
Sugarbeets plant response rating (sugar beet; [9]): 8
Sugarbeets plant response rating (sugar beet; [11]): 0
Soybean plant response rating (soybean; [4]): 2
Soybean plant response rating (soybean; [5]): 2
Plant response rating, Soybean (soybean; [6]): 0
Plant response rating, Soybean (soybean; [7]): 0
Soybean plant response rating (soybean; [8]): 0
Soybean plant response rating (soybean; [9]): 0
Soybean plant response rating (soybean; [11]): 2
